Results as given in patent US20190231751A1, “TREATMENT OF FIBROTIC DISORDERS WITH JUN N-TERMINAL KINASE INHIBITORS” (Imago Pharmaceuticals, Inc., priority 2016, published 2019).

Experiments:
JNK3 = JNK3 (Homo sapiens, UniProt P53779); test: In vitro JNK3 inhibition (Table 1); format: biochemical
Procedure: In vitro assays for the determination of JNK activities are known in the art and exemplary assay formats are described herein.
IC50 values in Table 1 were determined using the procedures as described in U.S. Pat. No. 8,450,353.

CTGF mRNA = test: TGF-β1-induced CTGF mRNA expression in HFL-1 cells; format: cell-based, human; conditions: compound 30 min before TGF-β1 1 ng/ml for 4 hours
Procedure: (§1) HFL-1 cells are created as described above in Example 3. HFL-1 cells are cultured with 0.1% DMSO (control vehicle), IGP001 or IGP002 for 30 min before stimulation with TGF-β1 (1 ng/ml) for 4 hours. Total RNA is extracted and hybridized with human CTGF probes, and messenger RNA levels are quantified by densitometry and optical density of CTGF mRNA band was corrected for G3PDH, and results are expressed as ratio (%) of control value (TGF-β1-stimulated HFL-1 cells).

SMAD2 = test: TGF-β1-induced SMAD2 phosphorylation in HFL-1 cells (Western blot); format: cell-based, human; conditions: TGF-β1 1 ng/ml
Procedure: TGF-β1 factors initiate signaling by assembling receptor complexes that activate SMAD proteins. IGP001 and IGP002 are tested for their ability to suppress TGF-031 induction of SMAD signaling pathway by detecting the dually phosphorylated (Ser 465/Ser 467) form of SMAD2 by Western blotting against specific anti-phosphokinase antibody.
as §1
Phosphorylation of SMAD2 following treatment with IGP001 or IGP002 are also determined by Western blotting whole cell lysates using an antibody specific for phosphorylated forms of SMAD2.

[1] = system: c-Jun phosphorylation at serine 63; test: ELISA of c-Jun phosphorylation in PBMC of treated rats; format: in vivo, rat; conditions: 10 and 30 mg/kg; kainic acid treated rats
Procedure: Blood from the animals treated with kainic acid as per Example 1 above was processed for the characterization of peripheral blood mononuclear cells (PBMC) from the treated animals. Briefly, the final blood samples from the exsanguinated rats were immediately centrifuged at 3,000 g for 10 minutes at 4° C. The plasma in upper layer was removed, and the remaining portion used for the isolation of the PBMC.
The buffy coat of PBMCs at the erythrocyte-plasma interface and the top red cell layer were collected into a 15 mL falcon tube containing 3 ml chilled PBS. The sample was resuspended and transferred to other 15 mL falcon tubes containing 6 ml Ficoll-Paque plus density gradient, and centrifuged at 18° C. for 10 minutes at 800 g. […] The middle ‘cloudy’ interface layer between plasma and Ficoll containing the PBMCs was transferred to a 15 mL tube, washed with 10 mL of cold PBS (4° C., 1×PBS), and centrifuged for 5 min at 4° C. at 1000 g. The supernatant was discarded.
The isolated PBMC were subjected to an ELISA assay using a kit for the detection of c-Jun phosphorylation at serine 63. Detection of phospho-Jun was carried out for the PMBCs of each kainic acid administered rat group: those receiving IGP001 in vehicle, those receiving IGP002 in vehicle, or those receiving vehicle alone.

ERK = test: TGF-β1-induced ERK activation in human lung fibroblasts (Western blot); format: cell-based; conditions: HFL-1 cells; TGF-β1 1 ng/ml
Procedure: IGP001 and IGP002 are shown to affect TGF-β1-induced MAP kinase activities in human lung fibroblasts. Human fetal lung fibroblasts (HFL-1) (ATCC, Rockville, Md.) are cultured in Ham's F12K medium (American Type Culture Collection) supplemented with 50 U/ml penicillin G sodium, 50 μg/ml streptonycin sulfate (GIBCO BRL, Life Technologies, Inc., Rockville, Md.) and 10% fetal bovine serum (FBS; Equitech-Bio. Inc., Ingram, Tex.) and maintained in humidified 5% CO2 at 37° C. After reaching confluence, the serum content of the medium is reduced to 0.4% FBS for 24 h. The cells are then stimulated with 1 ng/ml TGF-β1 to produce CTGF.
To test the ability of IGP001 and IGP002 to suppress activation of JNK, HFL-1 cells are cultured with 0.1% DMSO (control vehicle), IGP001 or IGP002 at a concentration of […] for 30 minutes, followed by stimulation with TGF-β1 (1 ng/ml) for 30 minutes. Activities of JNK, p38 MAP kinase and ERK are determined by Western blotting whole cell lysates using antibodies specific for phosphorylated, activated forms of JNK, p38 MAP kinase, and ERK. Two identical experiments independently performed yielded similar results.

[2] = system: monocyte/macrophage recruitment; test: Monocyte/macrophage recruitment in vivo (Example 9); conditions: 10 mg/kg/day p.o.; model not specified
[3] = system: myocardial ischemia-reperfusion; test: Rat model of cardiac ischemia and remodeling; format: in vivo
Procedure: To study the effects of JNK inhibitors on prevention and/or progression of cardiac infarct size following myocardial infarction, a rat model of cardiac ischemia and remodeling was used. Briefly, adult male Sprague-Dawley rats (Charles River labs) are subjected to 45 minutes normothermic ischemia (left coronary artery occlusion) followed by 48 hours reperfusion. In rodents, myocardial infarct size stabilizes by 48 hour post-ischemia following which events relating to left ventricular (LV) dilatation and remodeling begin. At the onset of reperfusion, animals receive vehicle, IGP001 or IGP002 (10 mg/kg/day) p.o. Infarct size as a percentage of region-at-risk (RAR) is determined using standard Evans Blue and tetrazolium chloride staining of the hearts. Rats are next tested for ischemic ventricular remodeling and cardiac function following treatment with IGP001 and IGP002. Rats subjected to 45 minutes normothermic myocardial ischemia receive vehicle, IGP001 or IGP002 p.o. (10 mg/kg/day, p.o.; twice/day for remainder of study) at onset of reperfusion. Following a 48 hour treatment period, animals are subjected to echocardiography (Philips Envisor C Ultrasound) at week 1 reperfusion and sacrificed at week 8 reperfusion. Myocardial ischemia-reperfusion is associated with the hall mark indices of LV remodeling: increased end-diastolic volume or LV dilatation; increased end-systolic volume (i.e. reduced cardiac output); reduced fractional shortening and ejection fraction. […] To better mimic the clinical scenario of delayed start of treatment, rats are administered with vehicle, IGP001 or IGP002 (10 mg/kg/day) p.o. 3 hours after the onset of reperfusion following a 45 minute myocardial ischemia. Animals are sacrificed at 48 hours reperfusion.

[4] = 10 mg/kg/day p.o. for 48 hours following myocardial ischemia, week 1

Chain of JNK3 (P53779 whole entry, species assumed): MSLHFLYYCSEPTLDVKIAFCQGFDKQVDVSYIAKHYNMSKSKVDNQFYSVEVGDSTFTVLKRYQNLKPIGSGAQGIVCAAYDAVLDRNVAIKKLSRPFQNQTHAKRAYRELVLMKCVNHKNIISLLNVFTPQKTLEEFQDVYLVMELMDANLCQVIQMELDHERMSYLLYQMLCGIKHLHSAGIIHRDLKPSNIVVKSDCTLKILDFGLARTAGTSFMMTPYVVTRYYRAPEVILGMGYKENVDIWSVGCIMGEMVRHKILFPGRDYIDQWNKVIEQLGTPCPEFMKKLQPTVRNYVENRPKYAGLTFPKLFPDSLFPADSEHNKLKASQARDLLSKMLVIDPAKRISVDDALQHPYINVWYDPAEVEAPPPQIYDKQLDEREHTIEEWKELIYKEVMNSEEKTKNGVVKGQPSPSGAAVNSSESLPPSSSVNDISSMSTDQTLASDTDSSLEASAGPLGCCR

For `O=C(Cn1c(=O)ccc2cc(C(F)(F)F)ccc21)Nc1scc(Br)c1-c1nnc[nH]1` [IGP001, N-(4-bromo-3-(1H-1,2,4-triazol-5-yl)thiophen-2-yl)-2-(2-oxo-6-(trifluoromethyl)quinolin-1(2H)-yl)acetamide], the IC50 (JNK3) was less than 100 nM, the “CTGF mRNA expression” value (CTGF mRNA) was “suppressed CTGF mRNA expression by HFL-1 cells stimulated with TGF-β1 in a dose-dependent fashion” and the “amounts of phosphorylated SMAD2” value (SMAD2) was “significantly increase”. For the same compound, the “c-Jun phosphorylation in PBMC” value [1] was “decrease in c-Jun phosphorylation”, the “TGF-β1-induced ERK activation” value (ERK) was “but not p38 MAP Kinase or ERK Activation” and the “monocyte/macrophage recruitment in vivo” value [2] was “significantly reduce monocyte/macrophage recruitment”. For the same compound, the “size of infarction, delayed start of treatment” value ([3]; 10 mg/kg/day p.o. 3 hours after the onset of reperfusion, 48 hours reperfusion) was “statistically significant decrease in the size of infarction”, the “postischemic myocardial infarct size” value ([3]; 10 mg/kg/day p.o. at the onset of reperfusion, 48 hours reperfusion) was “significant reduction in postischemic myocardial infarct size” and the “LV remodeling (echocardiography)” value [3, 4] was “reduces adverse LV remodeling”. For the same compound, the “cardiac function (echocardiography)” value [3, 4] was “improved cardiac function”.
